Patent US4837241A (priority 1986, dated 1989)

Tests used:
[1] = target: muscarinic acetylcholine receptors; format: binding, rat (male Wistar); conditions: 3H-QNB 1 nM; whole forebrain membranes, male Wistar rats; 37° C., 20 min, pH 7.1; non-specific: atropine 1 μg/ml
[2] = tested on: muscarinic; conditions: background, in words; cited from earlier work
[3] = background, in words; cited from earlier work
[4] = tested on: muscarinic cholinergic; conditions: background, in words; cited from earlier work
[5] = background, in words; cited from earlier work; remark: listed apart in the source

Structure (SMILES) | QNB binding Inhibition in vitro (IC50) [1] [µg/mL] | also measured
CCCc1nc(C2=CCCN(C)C2)no1 | 3.2 | 
CC(C)c1noc(C2=CCCN(C)C2)n1 | 4.9 | 
CCc1noc(C2=CC(C)CNC2)n1 (centres unmarked) | 7.5 | 
CN1CCC=C(c2nc(C3CC3)no2)C1 | 2.0 | 
C1=C(c2nc(C3CC3)no2)CNCC1 | 4.7 | 
CCCCc1noc(C2=CCC(C)N(C)C2)n1 (centres unmarked) | 3.3 | 
CCc1noc(C2=CCCN(C)C2)n1 | 3.5 | 
COC(=O)C1=CCCN(C)C1 [arecoline, methyl 1-methyl-1,2,5,6-tetrahydropiperidine-3-carboxylate] |  | separation between central and peripheral muscarinic effects [2]: small separation between central and peripheral muscarinic effects; toxicity [3]: rather toxic compound; cholinergic agonist [4]: cholinergic agonist; biological half life [5]: very short biological half life
